# Experimental data: article PMC8874540, “Pyrazole and Triazole Derivatives as Mycobacterium tuberculosis UDP-Galactopyranose Inhibitors” (Pharmaceuticals, 2022)
# Counter-ions that a name gives are not always drawn.
# Target: T1, UDP-galactopyranose mutase (MtbUGM) (Mycobacterium tuberculosis, UniProt P9WIQ1)
# T1 construct: gene glf; His6-tagged MtbUGM from pET-29b(+)
# Assay: HPLC assay, % inhibition at […], […] UDP-Galf
# Type: biochemical
# T1 sequence (P9WIQ1 whole entry): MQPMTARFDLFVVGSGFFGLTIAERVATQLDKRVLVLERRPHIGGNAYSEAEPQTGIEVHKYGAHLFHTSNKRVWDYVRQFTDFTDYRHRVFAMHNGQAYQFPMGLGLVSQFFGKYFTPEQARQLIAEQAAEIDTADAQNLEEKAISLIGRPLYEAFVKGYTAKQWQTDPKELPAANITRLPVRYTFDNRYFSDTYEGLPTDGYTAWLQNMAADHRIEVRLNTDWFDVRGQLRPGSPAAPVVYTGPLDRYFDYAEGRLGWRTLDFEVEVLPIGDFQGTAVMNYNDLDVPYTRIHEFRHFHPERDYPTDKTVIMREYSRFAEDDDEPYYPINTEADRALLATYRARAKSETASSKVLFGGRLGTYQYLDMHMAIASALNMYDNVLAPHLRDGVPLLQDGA
row,SMILES,"HPLC assay, % inhibition at 60 μM, 15 μM UDP-Galf"
1,"Cc1nn(-c2ccccc2)c(O)c1C(=O)c1ccc(Cl)cc1 [DA1, 4-p-chlorobenzoyl-1-phenyl-3-methyl-5-pyrazol]",DA1 and DA2 showed comparable inhibition to that of MS208
2,"Cc1nn(-c2ccc(Cl)cc2)c(O)c1C(=O)c1ccccc1 [DA2, 4-benzoyl-1-p-chlorophenyl-3-methyl-5-pyrazol]",DA1 and DA2 showed comparable inhibition to that of MS208
3,"Cc1nn(-c2ccc(Cl)cc2)c(O)c1S(=O)(=O)c1ccc(Cl)cc1 [DA5, 4-p-chlorobenzosulfonyl-1-p-chlorophenyl-3-methyl-5-pyrazol hydrochloride]","The sulfonyl derivative, DA5, showed comparable % inhibition to that of the carbonyl derivative MS208."
4,COC(=O)c1ccc(C(=O)Oc2cc(C)nn2-c2ccc(Cl)cc2)cc1 [DA8],"two of these O-acyl analogues, DA8 and DA10 still showed comparable % inhibition to MS208"
5,O=C(CCc1cn(-c2ccc(Cl)cc2)nn1)Oc1ccc(Cl)cc1 [DA11],"The triazolo analogues, DA11-DA13, showed comparable % inhibition to that of MS208."
6,"OC(c1ccc(Cl)cc1)c1cn(-c2ccc(Cl)cc2)nn1 (stereo not drawn) [DA12, [1-(4-chlorophenyl)-1H-1,2,3-triazol-4-yl]-4-chlorophenylmethanol]","The triazolo analogues, DA11-DA13, showed comparable % inhibition to that of MS208."
7,"O=C(c1ccc(Cl)cc1)c1cn(-c2ccc(Cl)cc2)nn1 [DA13, 4-p-chlorobenzoyl-1-p-chlorophenyl-1H-1,2,3-triazole]","The triazolo analogues, DA11-DA13, showed comparable % inhibition to that of MS208."
8,"Cc1nn(-c2ccc(Cl)cc2)c(O)c1C(=O)c1ccc(Cl)cc1 [MS208, 4-p-chlorobenzoyl-1-p-chlorophenyl-3-methyl-5-pyrazol]",DA1 and DA2 showed comparable inhibition to that of MS208

# Target: T1, UDP-galactopyranose mutase (MtbUGM)
# Assay: HPLC kinetic assay of UDP-Galf to UDP-Galp, global fit
# Type: biochemical
row,SMILES,Ki [µM]
1,"Cc1cc(OC(=O)c2ccc(S(N)(=O)=O)cc2)n(-c2ccc(Cl)cc2)n1 [DA10, 4-Sulfamoyl-[3-methyl-1-p-chlorophenyl-1H-pyrazol-5-yl] benzoic acid ester]",51 ± 4
